Structures are written as SMILES. Converted amounts (≈) assume the structure as drawn. “And” between values parts separate entries of the source, which are not always exact repeats. Equal values may be shown once. Bounds are passed on as bounds.

What is called MIC is the smallest concentration in the dilution series that meets the test's criterion for growth inhibition. Low values mean inhibition by little substance, high ones a need for much substance.

Experiment in all cases: ≥ marks a high value that may be exact or a test limit, other limits are often not marked, values filed in µg/mL are converted to µM
Experiment [1] deals with Staphylococcus aureus ATCC 29213.
The test system of experiment [2] is Pseudomonas aeruginosa ATCC 27853.
Experiment [3] concerns Escherichia coli ATCC 25922.
Experiment [4] deals with Staphylococcus aureus ATCC 25923.
Experiment [5] concerns Escherichia coli.
Experiment [6] relates to Staphylococcus epidermidis ATCC 12228.
In experiment [7] the test system is Enterococcus faecalis ATCC 29212.
The subject of experiment [8] is Pseudomonas aeruginosa.
Experiment [9] deals with Staphylococcus aureus.
For experiment [10], the system named is Candida albicans ATCC 90028.

In the case of `NCC(=O)N[C@@H](CCCN=C(N)N)C(=O)N[C@@H](CCCN=C(N)N)C(=O)N1CCC[C@H]1C(=O)N[C@@H](CCCN=C(N)N)C(=O)N1CCC[C@H]1C(=O)N[C@@H](CCCN=C(N)N)C(=O)N1CCC[C@H]1C(=O)N[C@@H](CCCN=C(N)N)C(=O)N1CCC[C@H]1C(=O)N[C@@H](Cc1ccccc1)C(=O)N[C@@H](Cc1ccccc1)C(=O)N[C@@H](Cc1ccccc1)C(N)=O` [GRRPRPRPRPFFF], the minimum inhibitory concentration (MIC) in experiment [1] was 40 µM (≈ 67.4 µg/mL); in experiment [2], more than 160 µM; in [3], 160 µM (≈ 270 µg/mL).
For the molecule `NCCCC[C@H](NC(=O)[C@H](CCCCN)NC(=O)[C@H](CCCN=C(N)N)NC(=O)[C@H](CCCN=C(N)N)NC(=O)[C@H](Cc1c[nH]c2ccccc12)NC(=O)[C@H](Cc1c[nH]c2ccccc12)NC(=O)[C@H](CCCN=C(N)N)NC(=O)[C@H](CCCCN)NC(=O)[C@H](CCCCN)NC(=O)[C@@H](N)CCCN=C(N)N)C(N)=O` [RKKRWWRRKK], the MIC in experiment [4] was 3 µM and 6 µM; in experiment [5] it was 3 µM and 6 µM.
Turning to `CC[C@H](C)[C@H](NC(=O)CN)C(=O)N[C@@H](CCCCN)C(=O)N[C@@H](CCCCN)C(=O)N[C@@H](Cc1c[nH]c2ccccc12)C(=O)N1CCC[C@H]1C(=O)N[C@@H](Cc1cnc[nH]1)C(=O)N[C@@H](CCCCN)C(=O)N1CCC[C@H]1C(=O)N[C@@H](CCCCN)C(=O)N[C@@H](CCCCN)C(=O)N[C@@H](Cc1ccccc1)C(=O)NCC(=O)N[C@@H](CCCCN)C(=O)N[C@@H](CCCCN)C(=O)N[C@@H](Cc1ccccc1)C(=O)N[C@H](C(=O)N[C@@H](CCCCN)C(=O)N[C@@H](CCCCN)C(=O)N[C@H](C(=O)N[C@@H](CCCCN)C(=O)N[C@@H](CCCCN)C(=O)N[C@@H](CO)C(N)=O)[C@@H](C)CC)C(C)C` [GIKKWPHKPKKFGKKFVKKIKKS], the MIC in experiment [6] was determined as 5 µM (≈ 13.8 µg/mL); in experiment [3] it was 10 µM (≈ 27.7 µg/mL).
For the molecule `CC[C@H](C)[C@H](NC(=O)CNC(=O)[C@H](CCCCN)NC(=O)[C@H](CC(C)C)NC(=O)[C@H](CCSC)NC(=O)[C@H](CC(N)=O)NC(=O)[C@H](CCCCN)NC(=O)[C@H](Cc1c[nH]c2ccccc12)NC(=O)[C@H](CC(C)C)NC(=O)[C@H](C)N)C(=O)NCC(=O)N[C@@H](CCCCN)C(=O)N[C@@H](CC(C)C)C(=O)N[C@@H](C)C(=O)NCC(=O)N[C@@H](CCC(N)=O)C(=O)N[C@@H](C)C(=O)N[C@@H](C)C(=O)N[C@@H](CC(C)C)C(=O)NCC(=O)N[C@@H](C)C(=O)N[C@H](C(=O)N[C@@H](CCCCN)C(=O)N[C@H](C(=O)N[C@@H](CC(C)C)C(=O)N[C@H](C(=O)NCC(=O)N[C@@H](C)C(=O)N[C@@H](CCC(=O)O)C(=O)N[C@@H](CO)C(=O)O)C(C)C)[C@@H](C)O)C(C)C` [ALWKNMLKGIGKLAGQAALGAVKTLVGAES], the minimal inhibitory concentration (MIC) in experiment [4] was determined as 2.7 µM (≈ 8.09 µg/mL); in experiment [2], 5.4 µM (≈ 16.2 µg/mL); in experiment [3], 1.3 µM (≈ 3.9 µg/mL); in experiment [7] it was 22 µM (≈ 65.9 µg/mL).
Take `CC(C)C[C@H](NC(=O)[C@H](CCCCN)NC(=O)CNC(=O)[C@H](C)NC(=O)[C@H](CC(C)C)NC(=O)[C@H](CCCCN)NC(=O)[C@H](C)NC(=O)[C@H](CC(C)C)NC(=O)[C@H](CCCCN)NC(=O)CNC(=O)[C@H](C)NC(=O)[C@H](Cc1c[nH]c2ccccc12)NC(=O)[C@H](CCCCN)NC(=O)[C@H](C)NC(=O)[C@H](CC(C)C)NC(=O)[C@H](CCCCN)NC(=O)CNC(=O)[C@H](C)NC(=O)[C@H](CC(C)C)NC(=O)[C@@H](N)CCCCN)C(=O)N[C@@H](C)C(N)=O` [KLAGKLAKWAGKLAKLAGKLA]: the MIC in experiment [8] was determined as 7.49 µM (≈ 16 µg/mL); in [9], 3.74 µM (≈ 8 µg/mL); in experiment [5] it was 3.74 µM (≈ 8 µg/mL).
As to `CC(C)C[C@H](NC(=O)[C@H](C)NC(=O)[C@H](Cc1ccc(O)cc1)NC(=O)[C@H](CC(C)C)NC(=O)[C@H](CCCN=C(N)N)NC(=O)[C@H](C)NC(=O)[C@H](CC(C)C)NC(=O)[C@H](CO)NC(=O)[C@H](C)NC(=O)[C@H](CC(C)C)NC(=O)[C@H](CC(=O)O)NC(=O)[C@H](CCCN=C(N)N)NC(=O)[C@H](CCCN=C(N)N)NC(=O)[C@H](CCCN=C(N)N)NC(=O)[C@H](CCC(=O)O)NC(=O)[C@H](CCC(=O)O)NC(=O)[C@H](CO)NC(=O)[C@@H](NC(=O)[C@H](CCC(N)=O)NC(=O)[C@H](Cc1ccc(O)cc1)NC(=O)[C@@H](N)Cc1ccc(O)cc1)C(C)C)C(=O)N[C@@H](C)C(=O)N[C@@H](CCCN=C(N)N)C(N)=O` [YYQVSEERRRDLASLARLYALAR], the MIC in [1] and in [3] was more than 250 µM in each case.
For `CC[C@H](C)[C@H](NC(=O)CNC(=O)[C@H](CO)NC(=O)[C@H](CC(C)C)NC(=O)[C@@H](NC(=O)CN)[C@@H](C)CC)C(=O)N[C@@H](CC(C)C)C(=O)NCC(=O)N[C@@H](C)C(=O)NCC(=O)N[C@@H](CCCCN)C(=O)N[C@@H](CO)C(=O)N[C@@H](CC(C)C)C(=O)N[C@H](C(=O)N[C@H]1CSSC[C@@H](C(=O)O)NC(=O)[C@H](CC(C)C)NC(=O)CNC(=O)[C@H](CO)NC(=O)[C@H](CC(C)C)NC(=O)CNC1=O)C(C)C` [GILSGILGAGKSLVCGLSGLC], the MIC in experiment [9] is more than 100 µM; in experiment [5], 50 µM (≈ 95.8 µg/mL).
With `CC[C@H](C)[C@H](NC(=O)[C@H](CCCN=C(N)N)NC(=O)[C@H](CCC(N)=O)NC(=O)[C@@H](NC(=O)[C@@H](NC(=O)[C@H](CCCN=C(N)N)NC(=O)[C@H](CCCCN)NC(=O)[C@@H](N)Cc1ccccc1)[C@@H](C)CC)C(C)C)C(=O)N[C@@H](CCCCN)C(=O)N[C@@H](CC(=O)O)C(=O)N[C@@H](CCC(N)=O)C(=O)N[C@@H](CC(C)C)C(=O)N[C@@H](CCCN=C(N)N)C(=O)O` [FKRIVQRIKDQLR], the MIC was more than 40 µM in experiment [1] and 10 µM (≈ 17 µg/mL) in experiment [3].
For `CC[C@H](C)[C@H](NC(=O)[C@@H]1CCCN1C(=O)[C@H](CC(C)C)NC(=O)[C@@H](N)Cc1ccccc1)C(=O)N[C@@H](CC(C)C)C(=O)NCC(=O)N[C@@H](CCCCN)C(=O)N[C@@H](CC(C)C)C(=O)N[C@@H](CC(C)C)C(=O)N[C@@H](CO)C(=O)NCC(=O)N[C@@H](Cc1ccccc1)C(=O)N[C@@H](CC(C)C)C(N)=O` [FLPILGKLLSGFL], the values for the minimal inhibitory concentration (MIC) in experiment [4], in experiment [10] and in experiment [3] were 10 µM (≈ 14.2 µg/mL), not below 80 µM and more than 160 µM, respectively.
For `CC[C@H](C)[C@H](NC(=O)CNC(C)=O)C(=O)NCC(=O)N[C@@H](CCCCN)C(=O)N[C@@H](Cc1ccccc1)C(=O)N[C@@H](CC(C)C)C(=O)N[C@@H](Cc1cnc[nH]1)C(=O)N[C@@H](CO)C(=O)N[C@@H](C)C(=O)N[C@@H](CCCCN)C(=O)N[C@@H](CCCCN)C(=O)N[C@@H](Cc1ccccc1)C(=O)NCC(=O)N[C@@H](CCCCN)C(=O)N[C@@H](C)C(=O)N[C@@H](Cc1ccccc1)C(=O)N[C@H](C(=O)NCC(=O)N[C@@H](CCC(N)=O)C(=O)N[C@H](C(=O)N[C@@H](CCSC)C(=O)N[C@@H](CC(N)=O)C(=O)N[C@@H](CO)C(N)=O)[C@@H](C)CC)C(C)C` [GIGKFLHSAKKFGKAFVGQIMNS], the minimum inhibitory concentration (MIC) in [6] and in experiment [3] was 20 µM (≈ 50.1 µg/mL) throughout.
Molecule `CC[C@H](C)[C@H](N)C(=O)N[C@H](C(=O)N[C@@H](CCCN=C(N)N)C(=O)N[C@H](C(=O)N[C@@H](C)C(=O)N[C@H](C(=O)N[C@@H](C)C(=O)N[C@@H](CC(C)C)C(=O)N[C@@H](CCCN=C(N)N)C(=O)N[C@@H](CCCN=C(N)N)C(=O)N[C@H](C(=O)N[C@@H](CCCN=C(N)N)C(N)=O)[C@@H](C)CC)C(C)C)C(C)C)C(C)C` [IVRVAVALRRIR] returned an MIC in [8] of 51.3 µM (≈ 73 µg/mL).
As to `CC[C@H](C)[C@H](NC(=O)[C@H](CCCN=C(N)N)NC(=O)[C@H](CCC(N)=O)NC(=O)[C@@H](NC(=O)[C@@H](NC(=O)[C@H](CCCN=C(N)N)NC(=O)[C@H](CCCCN)NC(=O)[C@H](C)N)[C@@H](C)CC)C(C)C)C(=O)N[C@@H](CCCCN)C(=O)N[C@@H](CC(=O)O)C(=O)N[C@@H](Cc1ccccc1)C(=O)N[C@@H](CC(C)C)C(=O)N[C@@H](CCCN=C(N)N)C(=O)O` [AKRIVQRIKDFLR], the minimum inhibitory concentration (MIC) in experiment [1] was more than 40 µM; in experiment [3] it was 10 µM (≈ 16.4 µg/mL).
`CC[C@H](C)[C@H](NC(=O)CN)C(=O)N[C@@H](CCSC)C(=O)N[C@@H](CC(=O)O)C(=O)N[C@H](C(=O)N[C@H](C(=O)N[C@@H](CCCCN)C(=O)NCC(=O)N[C@@H](C)C(=O)N[C@@H](C)C(=O)N[C@@H](CCCCN)C(=O)N[C@@H](CC(=O)O)C(=O)N[C@@H](CC(C)C)C(=O)N[C@@H](C)C(=O)NCC(=O)N[C@@H](CCC(N)=O)C(=O)N[C@@H](CC(C)C)C(=O)N[C@@H](CC(C)C)C(=O)N[C@@H](CC(=O)O)C(=O)N[C@@H](CCCCN)C(=O)N[C@@H](CC(C)C)C(=O)N[C@@H](CCCCN)C(=O)N[C@H]1CSSC[C@@H](C(=O)O)NC(=O)[C@H](CCCCN)NC(=O)[C@H]([C@@H](C)O)NC(=O)[C@H]([C@@H](C)CC)NC(=O)[C@H](CCCCN)NC1=O)[C@@H](C)CC)[C@@H](C)O` [GIMDTIKGAAKDLAGQLLDKLKCKITKC]: the MIC in [4] is more than 150 µM; in [10], not below 150 µM; in experiment [3], 75 µM (≈ 223 µg/mL).
Regarding `CC[C@H](C)[C@H](NC(=O)CNC(=O)CNC(=O)[C@H](CC(C)C)NC(=O)[C@H](CC(C)C)NC(=O)[C@H](CO)NC(=O)CNC(=O)[C@@H](NC(=O)[C@H](CC(C)C)NC(=O)[C@@H](N)CC(N)=O)C(C)C)C(=O)N[C@@H](CC(C)C)C(=O)N[C@@H](CCCCN)C(=O)N[C@@H](CCCCN)C(N)=O` [NLVGSLLGGILKK], the MIC is more than 534 µM in [1] and 457 µM (≈ 600 µg/mL) in experiment [3].
On to `CC[C@H](C)[C@H](NC(=O)[C@H](CCCCN)NC(=O)[C@H](C)NC(=O)[C@@H](N)CCC(N)=O)C(=O)N[C@@H](CCCN=C(N)N)C(=O)N[C@H](C(=O)N[C@@H](CCCN=C(N)N)C(=O)N[C@@H](CC(C)C)C(=O)N[C@@H](CO)C(=O)N[C@@H](C)C(=O)O)C(C)C` [QAKIRVRLSA], for which the MIC in experiment [1] is more than 56.1 µM; in [2], 28 µM (≈ 32 µg/mL); in experiment [3], 112 µM (≈ 128 µg/mL).

(Values after DBAASP.)
